Source: ChEMBL document CHEMBL1139557, “Synthesis and relative bioavailability of meptazinol benzoyl esters as prodrugs” (Bioorg Med Chem Lett, 2005)

What was measured:
[1] = (§1) Bioavailability in rat; type: ADME, organism-based; settings: in vivo
[2] = as §1; type: ADME, organism-based; settings: in vivo; remark: listed apart in the source
[3] = as §1; type: ADME, organism-based; settings: in vivo; remark: listed apart in the source
[4] = as §1; type: ADME, organism-based; settings: in vivo; remark: listed apart in the source
[5] = as §1; type: ADME, organism-based; settings: in vivo; remark: listed apart in the source
[6] = as §1; type: ADME, organism-based; settings: in vivo; remark: listed apart in the source
Mus musculus [7] = assay: Analgesic activity in hot plate test when dosed at 100 umol/kg intraperitoneally; type: functional
Mus musculus [8] = assay: Analgesic activity against mice in acetylcholine induced mice writhing test when dosed at 50 umol/kg (ig) administration after 40 min; type: functional
Mus musculus [9] = assay: Analgesic activity against mice in acetylcholine induced mice writhing test when dosed at 50 umol/kg (ig) administration after 80 min; type: functional
Mus musculus [10] = assay: Analgesic activity against mice in hot plate test when dosed at 100 umol/kg intraperitoneally; type: functional
[11] = Relative bioavailability in jejunum closed loop study in rats; Mean of 4 exp; type: ADME, organism-based; settings: rat, in vivo, other
[12] = Relative bioavailability in stomach closed loop study in rats; Mean of 4 exp; type: ADME, organism-based; settings: rat, in vivo; read-out: Relative Bioavailability

| SMILES | bioavailability [1] [%] | F [2] [%] | bioavailability [3] [%] | F [4] [%] | bioavailability [5] [%] | bioavailability [6] [%] | Activity (Mus musculus [7]) | Activity (Mus musculus [8]) | Activity (Mus musculus [9]) | bioavailability [2] [%] | bioavailability [4] [%] | Activity (Mus musculus [10]) | F [3] [%] | Relative Bioavailability [11] [%] | bioavailability [12] [%] |
| --- | --- | --- | --- | --- | --- | --- | --- | --- | --- | --- | --- | --- | --- | --- | --- |
| CCC1(c2cccc(OC(=O)c3c(C)cccc3N)c2)CCCCN(C)C1 (stereo unspecified) | 136 | 174.27 | 120 | 167.97 | 130 | 149 |  |  |  |  |  |  |  |  |  |
| CCC1(c2cccc(OC(=O)c3ccccc3)c2)CCCCN(C)C1 (stereo unspecified) | 112 |  | 53.9 |  | 75.4 | 133 | 4 | 2 | 2 | 58.1 | 81.6 |  |  |  |  |
| CCC1(c2cccc(OC(=O)c3ccccc3N)c2)CCCCN(C)C1 (stereo unspecified) | 107 |  |  |  | 59.8 | 80.4 |  | 1 | 0 | 101 | 81.9 | 3 | 183.64 |  |  |
| CCC1(c2cccc(OC(=O)c3c(C)cccc3N)c2)CCCCN(C)C1.Cl (stereo unspecified) |  |  |  |  |  |  |  |  |  |  |  |  |  | 562.72 | 65.4 |
